≈ marks a conversion by molar mass, not a printed value.
Assays:
Type in all cases: functional
[1] = test system: Mycobacterium tuberculosis; experiment: Antimycobacterial activity against INH-resistant Mycobacterium tuberculosis after 2 to 3 weeks by turbidity assay
[2] = test system: Mycobacterium tuberculosis; experiment: Antimycobacterial activity against rifampicin-resistant Mycobacterium tuberculosis after 2 to 3 weeks by turbidity assay
[3] = test system: Mycobacterium tuberculosis; experiment: Antimycobacterial activity against streptomycin-resistant Mycobacterium tuberculosis after 2 to 3 weeks by turbidity assay

Structure (SMILES)	MIC [1] [µg/mL]	MIC [2] [µg/mL]	MIC [3] [µg/mL]
Cc1c(C(F)(F)F)cc2nc(C(=O)N3CCCCC3)sc2c1[N+](=O)[O-]	0.25 (≈ 0.67 µM)	0.5 (≈ 1.34 µM)	0.25 (≈ 0.67 µM)
O=C(NCc1ccccn1)c1sc2c([N+](=O)[O-])cc(C(F)(F)F)cc2[n+]1[O-]	0.06 (≈ 0.151 µM)	0.03 (≈ 0.0753 µM)	0.06 (≈ 0.151 µM)
COCCN1CCN(C(=O)c2nc3cc(C(F)(F)F)c(C)c([N+](=O)[O-])c3s2)CC1	1 (≈ 2.31 µM)	1 (≈ 2.31 µM)	1 (≈ 2.31 µM)
O=C(NCc1ccccn1)c1nc2cc(C(F)(F)F)cc([N+](=O)[O-])c2s1	0.12 (≈ 0.314 µM)	0.25 (≈ 0.654 µM)	0.25 (≈ 0.654 µM)
